The source of these data is US20250144125A1 (priority 2021, published 2025).

The test system of one series is MERS-CoV (EMC strain). Put plainly: microbe, parasite or virus in culture. The class given is cell-based.
For series [1], the system named is measles virus (CC strain). Kind of series: microbe, parasite or virus in culture. The class given is cell-based.
Series [2] relates to tacaribe virus (TRVL11573 strain). Kind of series: microbe, parasite or virus in culture. The class given is cell-based. The settings on record: read-out: Tacaribe virus EC50 TRVL 11573 strain.
Series [3] has as its system yellow fever virus (YFV 17D strain). Put plainly: microbe, parasite or virus in culture. The class given is cell-based. The settings on record: read-out: Yellow fever virus EC50 YFV 17D strain.
In series [4] the test system is influenza A (H1N1) virus (California/07/2009 strain). Put plainly: microbe, parasite or virus in culture. It is filed as cell-based.
Series [5] concerns human norovirus genogroup I NoV (Norwalk virus replicon) in HG23 cells. Kind of series: Human norovirus antiviral assay, qRT PCR in HG23 NoV replicon cells. The settings on record: for EC50: HG23 Nov replicon cells, qRT PCR intracellular RNA, read-out: EC50 human norovirus. It is filed as cell-based. For orientation: In antiviral work, replicon cells carry a viral genome segment that copies itself.

Series [6] concerns chikungunya virus (S27 strain). Kind of series: microbe, parasite or virus in culture. The class given is cell-based. The settings on record: read-out: EC50 chikungunya virus.
In series [7] the test system is enterovirus-71 (Tainan/4643/98 strain). Put plainly: organism not typed. The class given is cell-based.
In series [8] the test system is tacaribe virus (TRVL11573 strain). It is filed as cell-based.
A further series deals with HG23 Nov replicon cells. Kind of series: Cytotoxicity in the human norovirus replicon assay (HG23 cells). The settings on record: read-out: CC50 human norovirus assay.
Series [9] relates to dengue virus 2 (New Guinea C strain). Kind of series: microbe, parasite or virus in culture. It is filed as cell-based.
Series [10] relates to enterovirus-71 (Tainan/4643/98 strain). Put plainly: Secondary assay (virus yield reduction / neutral red CPE) against enterovirus-71 in Vero 76 cells. The class given is cell-based.
Series [11] in a line: in vitro. To be noted: African green monkey.
A short description of series [12]: in vitro. To be noted: African green monkey, Tacaribe virus CC50 Vero.
Series [13] is described as follows: in vitro. To be noted: human.
Series [14] in a line: in vitro. To be noted: dog, CC50 MDCK.
Series [15] can be described thus: Cytotoxicity in the human norovirus replicon assay (HG23 cells). To be noted: human, HG23 Nov replicon cells.
A further series concerns Influenza A (H3N2). Put plainly: microbe, parasite or virus in culture. It is filed as cell-based. To be noted: H3N2, MDCK, read-out: EC50 Influenza A (H3N2).
A further series deals with Influenza A (H5N1). Kind of series: microbe, parasite or virus in culture. The settings on record: H5N1, MDCK, read-out: EC50 Influenza A (H5N1). The class given is cell-based.
In a further series the test system is Influenza B. Kind of series: microbe, parasite or virus in culture. It is filed as cell-based. To be noted: MDCK, read-out: EC50 Influenza B.
The test system of the next series is HCV. To be noted: literature; read-out: EC50 against HCV (RNA replication); cited from earlier work.
Where [16] appears, read: read-out: MERS-CoV EC50 EMC strain.
[17] abbreviates: read-out: Measles EC50 CC strain.
Setting [18] is: read-out: EC50 California/07/2009 strain.
The mark [19] stands for this setting: read-out: MERS-CoV CC50 Vero 76, Neutral Red, MERS-CoV screen.
The mark [20] stands for this setting: read-out: MERS-CoV CC50 Vero 76, Visual, MERS-CoV screen.
Setting [21] is: read-out: Yellow fever virus CC50 Huh7, Neutral Red, YFV screen.
[22] abbreviates: read-out: Yellow fever virus CC50 Huh7, Visual, YFV screen.
The mark [23] stands for this setting: Measles morbillivirus, Vero 76, read-out: Measles EC50 CC strain.
The mark [24] stands for this setting: Mammarenavirus tacaribeense, Vero.
Setting [25] is: Influenza A virus, H1N1, MDCK, read-out: EC50 California/07/2009 strain.
[26] abbreviates: Vero 76, read-out: EC50 enterovirus-71.

Where “and” joins values, the source holds several entries; their conditions need not be identical. Equal values may be shown once. Entries after “also recorded” stand apart in the source; their conditions may differ. Read-outs that look alike come from different tables or passages of the source.

What is called EC90 is the point of the concentration-response curve where the effect stands at 90%. On to `OC[C@H]1O[C@@H](n2ccc3c(C#CC4CC4)ncnc32)[C@H](O)[C@@H]1O` [3.1c, 6-Cydopropylethynyl-9-β-D-ribofuranosyl-7-deazapurine], for which, in the series on MERS-CoV (EMC strain), the “activity against MERS-CoV in words” value is “moderately active with low selectivity index”. Also, the EC50 with MERS-CoV (EMC strain) (setting [16]) is 10 µM and 6.7 µM; in [1] (setting [17]), 0.97 µM and 1 µM; in [2], 0.68 µM; in [3], 0.86 µM and 1.8 µM; in [4] (setting [18]), 11 µM and 8.2 µM; in series [5], 0.13 µM and 0.126 µM. Also, the results for the EC50 in series [6], in series [7] (read-out: EC50 enterovirus-71) and in series [8] were above 100 µM, above 100 µM and 1.1 µM, respectively. Further, in series [4], the “activity against influenza A (H1N1) in words” value is listed as “moderate activity”. Further, in series [7], the “activity against enterovirus-71 in words” value is “inactive”. Also, in series [8], the EC90 is 0.65 µM. Further, the CC50 is above 100 µM in the series with Vero 76 cells; above 100 µM with Vero 76 cells (setting [19]); 100 µM in the series on Vero 76 cells (setting [20]); 60 µM in the series on Huh7 cells (setting [21]); 32 µM with Huh7 cells (setting [22]); above 100 µM in the series with MDCK cells. Besides, the CC50 with HG23 Nov replicon cells was 17.5 µM.
In the case of `CCCC#Cc1ncnc2c1ccn2[C@@H]1O[C@H](CO)[C@@H](O)[C@H]1O` [3.1f, 6-(Pent-1-yn-1-yl)-9-β-D-ribofuranosyl-7-deazapurine], the EC50 in series [1] (setting [23]) worked out at 3.2 µM; in series [1] (setting [17]) it was 3.7 µM; in series [2] (setting [24]) it was 1.6 µM; in series [2] it was 1.8 µM; in series [4] (setting [25]), 2.2 µM; in series [4] (setting [18]), 2.3 µM. Moreover, the EC50 in series [5] (Norwalk virus) came to 0.002 µM; in series [9] (Dengue virus, Huh-7, read-out: EC50 dengue virus 2) it was 0.75 µM; in series [9] (read-out: EC50 dengue virus 2), 0.96 µM; in series [7] (setting [26]), 2.2 µM; in series [7] (read-out: EC50 enterovirus-71), 1.6 µM; in series [10] (Vero 76, Neutral Red (Cytopathic effect/Toxicity)) it was 29 µM. Further, in [5], the “activity against human norovirus in words” value was “low nanomolar activity and high selectivity”. This compound had an EC90 in [10] (Vero 76, Visual (Virus yield reduction)) of 17 µM. Also, the CC50 with Vero 76 cells (setting [19]) is 110 µM; with Vero 76 cells (setting [20]) it was 19 µM; in the series with Vero cells (African green monkey), 9.9 µM; in the series on Huh7 cells (human), 11 µM; in the series on Huh7 cells (setting [21]) it was 31 µM; in the series with MDCK cells (dog) it was 5.1 µM. The CC50 in the series “in vitro [11]” (CC50) was above 100 µM; in the series “in vitro [11]” (Measles CC50 Vero 76) it was 63 µM; in “in vitro [12]”, 10 µM; in the series “in vitro [13]” (CC50), 12 µM; in “in vitro [13]” (Yellow fever virus CC50 Huh7), 28 µM; in “in vitro [14]”, 9.1 µM. In series [15], the CC50 at 3 days is 38.7 µM.
As for `OC[C@H]1O[C@@H](n2ccc3c(C#CC4CCCC4)ncnc32)[C@H](O)[C@@H]1O` [3.1g, 6-(Cydopentylethynyl)-9-β-D-ribofuranosyl-7-deazapurine], the “activity against MERS-CoV in words” value with MERS-CoV (EMC strain) was “moderately active with low selectivity index”. The EC50 in [1] (setting [17]) is 3.3 µM and 2.8 µM; in series [2], 0.37 µM; in [3] it was 0.86 µM and 1.3 µM; in series [4] (setting [18]), above 8.4 µM; in series [5], 0.438 µM; in [6] it was above 100 µM. The figures for the EC50 in series [7] (read-out: EC50 enterovirus-71) and in series [10] (Neutral Red (Cytopathic effect/Toxicity)) were 1.5 µM and 3.8 µM, respectively. This compound came in with an EC90 in series [10] (Visual (Virus yield reduction)) of 1.1 µM. For the same compound, the CC50 in the series with Vero 76 cells (setting [19]) came to 49 µM; in the series on Vero 76 cells (setting [20]), 100 µM; with Vero cells, 34 µM; with Huh7 cells (setting [21]), 6 µM; in the series on Huh7 cells (setting [22]), 8.6 µM; in the series with HG23 Nov replicon cells it was 25.8 µM.
As for `CCc1ncnc2c1c(F)cn2[C@@H]1O[C@H](CO)[C@@H](O)[C@H]1O` [3.1r, 6-Ethyl-7-Fluoro-9-β-D-ribofuranosyl-7-deazapurine], the “activity against MERS-CoV in words” value with MERS-CoV (EMC strain) is recorded as “moderately active with low selectivity index; also recorded: low micromolar to submicromolar activity”. The EC50 in the series with MERS-CoV (EMC strain) (Middle East respiratory syndrome-related coronavirus, Vero 76, read-out: MERS-CoV EC50 EMC strain) was 3 µM; in the series on MERS-CoV (EMC strain) (setting [16]), 2.5 µM; in series [1] (setting [23]) it was 7.7 µM; in [1] (setting [17]), 9.6 µM; in series [2] (setting [24]), above 63 µM; in series [2], 43 µM. The EC50 in series [4] (setting [25]) is 0.34 µM; in series [4] (Influenza A virus, H1N1, MDCK, read-out: EC50 Influenza A (H1N1)) it was 0.34 µM; in series [4] (setting [18]), 0.32 µM; with Influenza A (H3N2), below 0.1 µM; in the series on Influenza A (H5N1), below 0.1 µM; in the series with Influenza B it was below 0.1 µM. The EC50 in series [7] (setting [26]) is above 100 µM. Further, the “activity against dengue virus 2 in words” value in series [9] is recorded as “low micromolar to submicromolar activity”. Also, the CC50 in the series on Vero 76 cells (African green monkey) is 42 µM; in the series on Vero 76 cells (setting [19]), 46 µM; in the series on Vero 76 cells (setting [20]) it was 100 µM; with Vero cells (African green monkey) it was 59 µM; with Huh7 cells (setting [21]), 1.9 µM; in the series on Huh7 cells (setting [22]), above 100 µM. Also, the CC50 in the series with MDCK cells (dog) is 43 µM; in “in vitro [11]” (CC50) it was above 100 µM; in “in vitro [11]” (Measles CC50 Vero 76), 32 µM; in “in vitro [12]”, 63 µM; in the series “in vitro [14]”, 32 µM.
Regarding `C[C@@]1(O)[C@H](O)[C@@H](CO)O[C@H]1n1cc(F)c2c(N)ncnc21` [7-fluoro-7-deaza-2′-C-methyladenosine], the EC50 with HCV was 0.07 µM.
Turning to `C[C@@]1(O)[C@H](O)[C@@H](CO)O[C@H]1n1ccc2c(N)ncnc21` [7-Deaza-2′-C-methyladenosine], in the series on HCV, the EC50 is 0.25 µM.
